Patent US20040092475A1, “Organic compounds” (priority 2002, published 2004)
Counter-ions that a name gives are not always drawn.

Key:
human TRPC6 ion channel = biological target: T1, human TRPC6 ion channel (Homo sapiens, UniProt Q9Y210); assay: FLIPR membrane potential assay, carbachol-stimulated TRPC6-expressing cells (TRPC6 clone 14); type: cell-based; conditions: for Mean fluorescence response calculated as (Max − Min)/Min: 10 min pre-treatment, n=10 wells, control 1.219
T1 construct: expressed in transfected cells; host or cells: TRPC6 clone 14 cells
T1 sequence (Q9Y210 1-931): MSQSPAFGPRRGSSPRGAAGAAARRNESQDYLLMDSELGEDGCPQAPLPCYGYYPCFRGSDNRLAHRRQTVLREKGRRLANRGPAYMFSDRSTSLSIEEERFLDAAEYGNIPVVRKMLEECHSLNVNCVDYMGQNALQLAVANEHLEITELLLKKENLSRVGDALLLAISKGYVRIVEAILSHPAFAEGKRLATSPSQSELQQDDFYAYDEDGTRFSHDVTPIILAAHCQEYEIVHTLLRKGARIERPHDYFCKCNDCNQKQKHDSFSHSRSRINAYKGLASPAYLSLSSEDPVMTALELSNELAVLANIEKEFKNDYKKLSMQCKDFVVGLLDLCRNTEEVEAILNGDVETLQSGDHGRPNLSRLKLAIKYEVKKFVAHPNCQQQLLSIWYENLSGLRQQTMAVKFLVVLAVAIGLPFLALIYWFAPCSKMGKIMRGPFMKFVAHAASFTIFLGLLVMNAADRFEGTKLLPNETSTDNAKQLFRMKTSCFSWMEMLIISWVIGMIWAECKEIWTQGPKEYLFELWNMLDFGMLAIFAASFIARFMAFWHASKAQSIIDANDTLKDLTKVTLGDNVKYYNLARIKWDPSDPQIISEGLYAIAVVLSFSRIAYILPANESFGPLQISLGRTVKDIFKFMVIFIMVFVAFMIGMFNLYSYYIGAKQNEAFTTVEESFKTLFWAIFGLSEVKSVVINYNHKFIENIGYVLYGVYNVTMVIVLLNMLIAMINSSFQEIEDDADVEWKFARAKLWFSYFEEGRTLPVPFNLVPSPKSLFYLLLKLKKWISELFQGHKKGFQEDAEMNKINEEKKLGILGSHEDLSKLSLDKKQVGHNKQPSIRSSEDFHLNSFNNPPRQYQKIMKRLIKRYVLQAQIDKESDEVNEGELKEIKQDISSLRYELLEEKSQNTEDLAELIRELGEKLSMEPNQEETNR
Description: In a suitable test for any inhibition of the TRPC6 channel, cells that express an endogenous G protein-coupled calcium mobilising receptor e.g. muscarinic acetylcholine receptor that can activate TRPC6 channels are used and a receptor agonist e.g. muscarinic acetylcholine receptor agonist is added to stimulate the TRPC6 channels. The cells are treated with the candidate substance prior to addition of the receptor agonist. That should produce an increase in fluorescence, but the magnitude of the increase will be reduced if the candidate substance inhibits the TRPC6 channels. Any change in fluorescence can be measured using suitable equipment, for example a fluorescence imaging plate reader.
An assay for screening candidate or test compounds is performed using cells stably-transfected with TRPC6 and expressing a functional TRPC6 channel e.g. the mammalian cell line HEK 293 which expresses an endogenous muscarinic acetylcholine receptor which can activate TRPC6 channels. […] The TRPC6-expressing cells are seeded in 96-well black-walled flat-bottomed microplates in a plating volume of 100 μl and grown to confluence for the assay. To prepare the cells for the assay, the cell culture medium is removed and 100 μl of loading buffer is added to each well. The loading buffer consists of FLIPR® membrane potential dye diluted to the required assay concentration in a buffer composed of 140 mM-NaCl, 0.15 mM CaCl2, 3.3 mM KH2PO4, 1.2 mM MgCl2, 10 mM D-glucose and 20 m M HEPES, at pH7.4 and containing 0.03 mM BAPTA-AM. The plates are incubated at 37° C. for 20 minutes prior to commencing the assay. For the detection of inhibitors of TRPC6, test agents are added to each well either before or after stimulation with the muscarinic acetylcholine receptor agonist carbachol, which activates the TRPC6 channel. The expected effect of an inhibitor would be to reduce the carbachol-stimulated increase in fluorescence. Activators of TRPC6 may be detected by substituting carbachol for a test agent, where activators will stimulate an increase in fluorescence.
TRPC6 clone 14 cells pre-treated with 1-[b-[3-(4-methoxyphenyl)propoxy]-4-methoxyphenethyl]-1H-imidazole.HCl for 10 minutes are stimulated with carbachol (10 μM) in accordance with the assay described in Example 2. The fluorescence is measured prior to carbachol addition (minimum response, i.e. Min.) and when the carbachol-stimulated increase in fluorescence has reached a maximum (maximum response, i.e. Max.). It can be seen in table 1 below that the reduced fluorescence responses are observed in compound treated-cells compared to the control response in the absence of compound.
The data is calculated as a (Max−Min)/Min response. Each concentration of 1-[b-[3-(4-methoxyphenyl)propoxy]-4-methoxyphenethyl]-1H-imidazole.HCl is the mean±SEM (standard error of the mean) of n=10 wells.

[1] = system: receptor-mediated calcium entry (RMCE); conditions: Merritt et al, Biochem. J. (1990) 271: 515-522; cited from earlier work
murine TRPC6 ion channel = biological target: T2, murine TRPC6 ion channel (Mus musculus, UniProt Q61143); conditions: Inoue et al, Circ. Res. (2001) 88: 325-332; cited from earlier work
T2 sequence (Q61143 1-930): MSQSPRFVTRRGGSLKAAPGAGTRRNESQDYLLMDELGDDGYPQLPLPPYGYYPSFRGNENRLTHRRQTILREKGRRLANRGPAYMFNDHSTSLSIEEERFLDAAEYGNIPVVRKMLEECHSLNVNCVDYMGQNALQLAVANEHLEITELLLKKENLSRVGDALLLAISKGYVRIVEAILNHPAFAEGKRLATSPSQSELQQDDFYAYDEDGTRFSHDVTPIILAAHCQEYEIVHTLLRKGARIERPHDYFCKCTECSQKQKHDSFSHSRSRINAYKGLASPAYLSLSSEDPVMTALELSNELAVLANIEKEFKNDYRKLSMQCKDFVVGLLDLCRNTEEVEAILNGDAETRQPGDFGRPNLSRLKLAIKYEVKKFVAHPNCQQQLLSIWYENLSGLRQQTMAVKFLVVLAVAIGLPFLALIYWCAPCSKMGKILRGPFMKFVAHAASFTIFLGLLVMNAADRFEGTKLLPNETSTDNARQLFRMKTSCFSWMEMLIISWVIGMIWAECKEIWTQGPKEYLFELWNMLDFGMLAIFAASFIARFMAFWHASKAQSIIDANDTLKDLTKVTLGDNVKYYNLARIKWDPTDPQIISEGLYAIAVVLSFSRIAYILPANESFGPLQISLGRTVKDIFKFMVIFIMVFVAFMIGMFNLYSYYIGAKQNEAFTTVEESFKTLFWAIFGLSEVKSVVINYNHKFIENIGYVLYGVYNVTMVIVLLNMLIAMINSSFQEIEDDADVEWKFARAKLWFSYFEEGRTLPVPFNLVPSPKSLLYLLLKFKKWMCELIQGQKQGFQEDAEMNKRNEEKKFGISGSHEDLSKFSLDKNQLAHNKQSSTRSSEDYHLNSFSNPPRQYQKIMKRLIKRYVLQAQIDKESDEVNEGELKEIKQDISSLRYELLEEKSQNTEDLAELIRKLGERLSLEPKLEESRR

For `COc1ccc(CCCOC(Cn2ccnc2)c2ccc(OC)cc2)cc1` (stereo not shown) [1-[b-[3-(4-methoxyphenyl)propoxy]-4-methoxyphenethyl]-1H-imidazole.HCl], the “Mean fluorescence response calculated as (Max − Min)/Min” value (from here on “Mean fluorescence response calculated”) (human TRPC6 ion channel; compound concentration 0.1 μM, carbachol 10 μM) was 1.172, the “Mean fluorescence response calculated” value (human TRPC6 ion channel; compound concentration 1.0 μM, carbachol 10 μM) was 0.977 and the “Mean fluorescence response calculated” value (human TRPC6 ion channel; compound concentration 03 μM (so in the source), carbachol 10 μM) was 1.128. For the same compound, the “Mean fluorescence response calculated” value (human TRPC6 ion channel; compound concentration 3.0 μM, carbachol 10 μM) was 0.699, the “Mean fluorescence response calculated” value (human TRPC6 ion channel; compound concentration 10.0 μM, carbachol 10 μM) was 0.278 and the “Mean fluorescence response calculated” value (human TRPC6 ion channel; compound concentration 30.0 μM, carbachol 10 μM) was 0.122. The IC50 (human TRPC6 ion channel; mean±S.E.M. from n=4 experiments, carbachol 10 μM, read-out: calculated mean IC50 value) was 4.9 ± 0.8 µM, the “activity of the human TRPC6 ion channel” value (human TRPC6 ion channel; result in words) was “inhibits” and the “receptor-mediated calcium entry (RMCE)” value [1] was “inhibit”. The “murine TRPC6 ion channel block” value (murine TRPC6 ion channel) was “block”.
